From US4568490A, “Aminopropylaminobleomycin derivatives and process for preparation thereof” (Zaidan Hojin Biseibutsu Kagaku Kenkyu Kai, priority 1981, dated 1986)

Experiments:
[1] = tested on: Lymphocytic leukemia P-388; test: In vivo antitumor activity, murine lymphocytic leukemia P-388; conditions: BDF1-SLC mice, i.p. transplant, once daily for 9 days, 30 days observation; T/C more than 130 effective
Hela S3 cells [2] = test: Growth inhibitory activity against Hela S3 cells; type: cell-based; conditions: Cu-free form; Hela S3, 3 days incubation with compound
Protocol: The percentage growth inhibition was calculated using the equation: […] wherein A is the ultimate number of cells on the third day from the addition of a test sample, B is the ultimate number of cells in the control (without the addition of test sample), and C is the number of cells on the day of addition of the test sample.

ICR strain mice = test: Pulmonary toxicity (pulmonary fibrosis) in mice, intraperitoneal injection; type: in vivo; conditions: 5 mg/kg i.p. once a day for 10 days; for Grade of pulmonary fibrosis, % / Incidence of pulmonary fibrosis, % / Incidence: number of mice suffering from pulmonary fibrosis / Grade: total score of pulmonary fibrosis/total number of test animal: autopsy after 5 weeks; for Incidence: number of mice suffering from pulmonary fibrosis: affected/total mice; for Grade: total score of pulmonary fibrosis/total number of test animal: score 0-6 points; for Grade of pulmonary fibrosis, Ratio / Incidence of pulmonary fibrosis, Ratio: reference of the ratio not stated
In short: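 Male ICR mice, 15 weeks old, 9 per group, received 5 mg/kg intraperitoneally once daily for 10 days. They were autopsied after 5 weeks' observation for pulmonary fibrosis incidence and grade: 1, alveolar exudate/septal fibrosis-like change; 2, fibrosis in several areas; 4, scattered fibrosis; 6, fibrosis over >2/3 of area.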

Bacillus subtilis = test: Antimicrobial activity, agar plate-cylinder method; type: cell-based; conditions: Cu-free form; bleomycin A2 (Cu-free form) standard assumed 1,000 mcg/mg
Protocol: (1) Antimicrobial activity against Mycobacterium smegmatis ATCC 697 and Bacillus subtilis.
(§1) The activity was assayed against the above test microorganisms by the method of agar plate-cylinder, assuming the potency of bleomycin A2 (Cu-free form), used as standard, to be 1,000 mcg/mg.

[3] = tested on: CDF1 /SLC strain male mice; test: Acute toxicity, LD50 on 10 consecutive days; type: in vivo; conditions: subcutaneous, Behrens-Karber method
Protocol: LD50 was assayed by administering several representative compounds of this invention for 10 consecutive days.
CDF1 /SLC strain male mice (each 6 weeks old, 7 members per group) were subcutaneously administered with various compounds of this invention, the dose being different with each compound. LD50 (daily dose) was estimated from the mortality during the administration period by the Behrens-Karber method.

[4] = tested on: Mycobacterium smegmatis ATCC 607; test: Antimicrobial activity, agar plate-cylinder method; type: cell-based; conditions: Cu-free form; bleomycin A2 (Cu-free form) standard assumed 1,000 mcg/mg
Protocol: as §1

Hela S3 cells [5] = conditions: background statement; cited from earlier work

| Structure (SMILES) | Max. T/C on Mouse Lymphocytic Leukemia P 388 [1] | 50% growth inhibition concentration (ID50) of Cu--free compound against cultured Hela cell (Hela S3 cells [2]) | Grade of pulmonary fibrosis, % (ICR strain mice) | Incidence of pulmonary fibrosis, % (ICR strain mice) | Incidence: number of mice suffering from pulmonary fibrosis (ICR strain mice) | Grade: total score of pulmonary fibrosis/total number of test animal (ICR strain mice) | Grade of pulmonary fibrosis, Ratio (ICR strain mice) | Incidence of pulmonary fibrosis, Ratio (ICR strain mice) | Antimicrobial potency of Cu--free compound, against Bacillus subtilis (Bacillus subtilis) | LD50 (daily dose) [3] | Antimicrobial potency of Cu--free compound, against Mycobacterium smegmatis ATCC 607 [4] | Growth inhibition of Hela Cell (in words) (Hela S3 cells [5]) |
| --- | --- | --- | --- | --- | --- | --- | --- | --- | --- | --- | --- | --- |
| Cc1c(N)nc(C(CC(N)=O)NCC(N)C(N)=O)nc1C(=O)NC(C(=O)NC(C)C(O)C(C)C(=O)NC(C(=O)NCCc1nc(-c2nc(C(=O)NCCCN3CCN(CCCN(Cc4ccccc4)Cc4ccccc4)CC3)cs2)cs1)C(C)O)C(OC1OC(CO)C(O)C(O)C1OC1OC(CO)C(O)C(OC(N)=O)C1O)c1cnc[nH]1 (stereo not drawn) [Compound No. 43] | 182% | 0.50 µg/mL | 0% | 0% | 0/9 | 0/27 | 0.00 | 0.00 | 1230 mcg potency per mg | 12.5 mg/kg/day | 14420 mcg potency per mg |  |
| Cc1c(N)nc(C(CC(N)=O)NCC(N)C(N)=O)nc1C(=O)NC(C(=O)NC(C)C(O)C(C)C(=O)NC(C(=O)NCCc1nc(-c2nc(C(=O)NCCCN(C)CCCN)cs2)cs1)C(C)O)C(OC1OC(CO)C(O)C(O)C1OC1OC(CO)C(O)C(OC(N)=O)C1O)c1cnc[nH]1 (stereo not drawn) [APMP, 3-[N-(3-aminopropyl)-N-methylamino]propylaminobleomycin, reference compound] |  |  | 0% | 100% | 9/9 | 48/27 | 2.15 | 1.6 |  |  |  | strongly inhibits |
